The source of these data is paper PMC6274539, “Photoactivatable Caged Prodrugs of VEGFR-2 Kinase Inhibitors” (Molecules, 2016).

One series has as its target MARK3 (Homo sapiens, UniProt P27448). The series is described as follows: kinase profiling, radioactive filter binding assay. Type of series: biochemical. To be noted: 0.1 µM compound, assay duplicates; read-out: residual activity of MARK3, mean percentage activity. The method, boiled down: (§1)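 [33P]ATP filter-binding radiometric assay; compound 0.1 µM (DMSO); duplicates, mean % residual activity ± SD.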

The target of another series is PIM2 (Homo sapiens, UniProt Q9P1W9). The series is described as follows: kinase profiling, radioactive filter binding assay. It is filed as biochemical. To be noted: 0.1 µM compound, assay duplicates; read-out: residual activity of PIM2, mean percentage activity. The method, boiled down: as §1
PIM2, sequence (Q9P1W9 whole entry): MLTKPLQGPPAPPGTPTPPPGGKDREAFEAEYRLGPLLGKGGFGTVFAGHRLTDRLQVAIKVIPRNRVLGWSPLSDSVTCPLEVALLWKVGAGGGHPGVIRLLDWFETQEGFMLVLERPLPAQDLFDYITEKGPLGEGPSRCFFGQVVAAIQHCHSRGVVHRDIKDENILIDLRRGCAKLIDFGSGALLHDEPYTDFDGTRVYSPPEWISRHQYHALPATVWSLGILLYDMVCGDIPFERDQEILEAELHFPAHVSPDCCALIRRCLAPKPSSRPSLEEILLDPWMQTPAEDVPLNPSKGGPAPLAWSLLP
A further series has as its target SRPK1 (Homo sapiens, UniProt Q96SB4). Kind of series: kinase profiling, radioactive filter binding assay. It is filed as biochemical. To be noted: 0.1 µM compound, assay duplicates; read-out: residual activity of SRPK1, mean percentage activity. Summed up: as §1
In a further series the target is DYRK3 (Homo sapiens, UniProt O43781). Kind of series: kinase profiling, radioactive filter binding assay. It is filed as biochemical. To be noted: 0.1 µM compound, assay duplicates; read-out: residual activity of DYRK3, mean percentage activity. Summed up:
as §1

The next series addresses CK1 (Homo sapiens, UniProt P48730). The series is described as follows: kinase profiling, radioactive filter binding assay. It is filed as biochemical. To be noted: 0.1 µM compound, assay duplicates; read-out: residual activity of CK1, mean percentage activity. Summed up: as §1
The next series addresses RSK2 (Homo sapiens, UniProt P51812). Kind of series: kinase profiling, radioactive filter binding assay. As to conditions: 0.1 µM compound, assay duplicates; read-out: residual activity of RSK2, mean percentage activity. Type of series: biochemical. Summed up: as §1
In a further series the target is IR-HIS (Homo sapiens, UniProt P06213). The series is described as follows: kinase profiling, radioactive filter binding assay. Type of series: biochemical. As to conditions: 0.1 µM compound, assay duplicates; read-out: residual activity of IR-HIS, mean percentage activity. Summed up: as §1
IR-HIS, sequence (P06213 28-1382): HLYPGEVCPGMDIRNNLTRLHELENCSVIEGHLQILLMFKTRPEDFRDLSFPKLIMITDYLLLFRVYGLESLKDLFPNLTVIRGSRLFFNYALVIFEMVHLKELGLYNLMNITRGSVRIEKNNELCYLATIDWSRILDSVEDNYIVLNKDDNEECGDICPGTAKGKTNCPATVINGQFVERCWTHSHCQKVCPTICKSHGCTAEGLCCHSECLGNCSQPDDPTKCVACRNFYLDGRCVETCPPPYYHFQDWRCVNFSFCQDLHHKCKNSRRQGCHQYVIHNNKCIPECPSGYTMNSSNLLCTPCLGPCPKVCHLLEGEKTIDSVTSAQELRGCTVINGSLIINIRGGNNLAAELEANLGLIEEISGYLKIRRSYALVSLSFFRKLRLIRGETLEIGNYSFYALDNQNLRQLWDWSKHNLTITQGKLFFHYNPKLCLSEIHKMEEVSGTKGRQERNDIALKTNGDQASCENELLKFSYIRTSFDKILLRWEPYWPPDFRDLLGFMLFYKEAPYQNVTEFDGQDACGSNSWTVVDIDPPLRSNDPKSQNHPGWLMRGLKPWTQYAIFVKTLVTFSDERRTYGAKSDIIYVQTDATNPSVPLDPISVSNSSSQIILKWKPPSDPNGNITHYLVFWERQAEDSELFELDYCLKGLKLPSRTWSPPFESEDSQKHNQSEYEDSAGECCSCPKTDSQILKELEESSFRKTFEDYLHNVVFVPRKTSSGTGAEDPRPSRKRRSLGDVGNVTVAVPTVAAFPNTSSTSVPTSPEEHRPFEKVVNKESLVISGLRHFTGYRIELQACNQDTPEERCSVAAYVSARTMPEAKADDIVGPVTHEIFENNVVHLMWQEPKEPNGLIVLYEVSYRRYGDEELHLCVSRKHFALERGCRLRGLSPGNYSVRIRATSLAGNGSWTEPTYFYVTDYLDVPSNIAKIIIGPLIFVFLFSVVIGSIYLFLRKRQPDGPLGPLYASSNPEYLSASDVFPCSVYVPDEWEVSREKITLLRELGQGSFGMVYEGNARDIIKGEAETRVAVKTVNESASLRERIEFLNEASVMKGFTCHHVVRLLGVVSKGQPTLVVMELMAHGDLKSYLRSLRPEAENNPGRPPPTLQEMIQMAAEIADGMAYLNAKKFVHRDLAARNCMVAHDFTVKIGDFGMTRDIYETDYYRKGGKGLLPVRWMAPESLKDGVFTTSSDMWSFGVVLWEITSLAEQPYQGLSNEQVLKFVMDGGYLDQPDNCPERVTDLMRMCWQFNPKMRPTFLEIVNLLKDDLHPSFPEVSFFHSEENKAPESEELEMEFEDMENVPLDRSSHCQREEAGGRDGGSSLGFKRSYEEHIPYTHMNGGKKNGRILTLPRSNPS
The nature of series [1]: UV stability at 365 nm in DMSO (HPLC, LC-MS). To be noted: 1 mM in DMSO, 5.4 W, up to 10 min.
Procedure: HPLC and LC-MS analysis were used for content determination.
Aliquots were diluted 1:10 with methanol and analyzed by HPLC.
A further series has as its system PC-3 cells. Kind of series: cellular uptake by fluorescence microscopy (cell staining). As to conditions: live PC-3 cells, 10 µM, 30 min, autofluorescence. Type of series: cell-based. How it is done: Next, we investigated the cellular bioavailability of the caged prodrugs. For this purpose, we used the autofluorescence of the carbazole 3 and its caged derivative 5. The emission spectra of both compounds are shown in the Supplementary Figure S6. The fluorescence microscopy was used to explore the uptake of the compounds into the cells. Live PC-3 cells were stained with 10 µM solutions of 3 or 5, and then fixed with formalin. Subsequently, the cell nuclei were counterstained with 1 µg/mL DAPI.
PC-3 cells were stained with the carbazole 3 and its caged derivative 5. For this purpose, the cells were seeded to give 15,000 cells in 50 µL per well into 96-well half area microplate (Ref.: 675986, Greiner bio-one, Kremsmünster, Austria). The plate was incubated for 48 h at 37 °C in a humidified atmosphere with 5% CO2. Compounds 3 and 5 were dissolved in DMEM:Hams F12 (1:1) medium with 5% FCS and added to the cells to give the endconcentration of 10 µM, respectively. The cells were incubated with the compounds for 30 min at 37 °C. After that, the cells were washed twice with PBS and fixed with 3.3% formalin for 15 min. […] After 30 min incubation at 37 °C, the cells were washed with PBS and the fluorescence images were taken at the ImageXpress® Micro XL (Molecular Devices, Sunnyvale CA, USA). […]

DYRK3, sequence (O43781 whole entry): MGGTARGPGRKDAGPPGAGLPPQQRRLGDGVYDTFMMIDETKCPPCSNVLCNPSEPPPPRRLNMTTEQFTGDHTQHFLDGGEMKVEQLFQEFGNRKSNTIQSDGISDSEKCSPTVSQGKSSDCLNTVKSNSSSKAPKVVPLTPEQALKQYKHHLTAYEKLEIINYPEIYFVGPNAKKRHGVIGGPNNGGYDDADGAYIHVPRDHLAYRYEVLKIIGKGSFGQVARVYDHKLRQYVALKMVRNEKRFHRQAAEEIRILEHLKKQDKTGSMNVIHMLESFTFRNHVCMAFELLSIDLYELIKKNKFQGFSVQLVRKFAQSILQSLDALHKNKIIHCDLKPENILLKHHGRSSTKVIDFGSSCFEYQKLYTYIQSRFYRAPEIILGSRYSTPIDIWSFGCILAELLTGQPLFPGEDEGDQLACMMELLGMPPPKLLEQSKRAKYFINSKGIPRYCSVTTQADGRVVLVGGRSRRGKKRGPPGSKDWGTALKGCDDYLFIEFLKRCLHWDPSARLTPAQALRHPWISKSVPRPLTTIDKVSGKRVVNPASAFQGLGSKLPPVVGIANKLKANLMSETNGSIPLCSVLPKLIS
SRPK1, sequence (Q96SB4 whole entry): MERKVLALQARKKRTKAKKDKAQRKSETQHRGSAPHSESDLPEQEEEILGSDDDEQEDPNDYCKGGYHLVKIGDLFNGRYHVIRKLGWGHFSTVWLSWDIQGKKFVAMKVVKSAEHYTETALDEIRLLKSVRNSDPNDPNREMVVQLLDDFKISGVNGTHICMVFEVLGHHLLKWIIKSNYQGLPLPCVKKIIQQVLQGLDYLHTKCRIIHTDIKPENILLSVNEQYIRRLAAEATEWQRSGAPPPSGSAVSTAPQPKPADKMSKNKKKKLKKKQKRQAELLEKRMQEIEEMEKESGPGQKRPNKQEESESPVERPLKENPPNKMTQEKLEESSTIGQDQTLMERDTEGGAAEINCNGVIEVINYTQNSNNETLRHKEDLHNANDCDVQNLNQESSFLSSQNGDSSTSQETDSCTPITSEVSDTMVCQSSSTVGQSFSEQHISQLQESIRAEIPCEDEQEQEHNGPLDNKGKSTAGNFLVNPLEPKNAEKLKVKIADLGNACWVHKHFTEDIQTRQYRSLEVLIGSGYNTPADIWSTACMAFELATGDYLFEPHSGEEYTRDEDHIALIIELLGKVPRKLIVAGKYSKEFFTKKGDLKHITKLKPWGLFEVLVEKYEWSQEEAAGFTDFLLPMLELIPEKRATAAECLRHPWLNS
MARK3, sequence (P27448 whole entry): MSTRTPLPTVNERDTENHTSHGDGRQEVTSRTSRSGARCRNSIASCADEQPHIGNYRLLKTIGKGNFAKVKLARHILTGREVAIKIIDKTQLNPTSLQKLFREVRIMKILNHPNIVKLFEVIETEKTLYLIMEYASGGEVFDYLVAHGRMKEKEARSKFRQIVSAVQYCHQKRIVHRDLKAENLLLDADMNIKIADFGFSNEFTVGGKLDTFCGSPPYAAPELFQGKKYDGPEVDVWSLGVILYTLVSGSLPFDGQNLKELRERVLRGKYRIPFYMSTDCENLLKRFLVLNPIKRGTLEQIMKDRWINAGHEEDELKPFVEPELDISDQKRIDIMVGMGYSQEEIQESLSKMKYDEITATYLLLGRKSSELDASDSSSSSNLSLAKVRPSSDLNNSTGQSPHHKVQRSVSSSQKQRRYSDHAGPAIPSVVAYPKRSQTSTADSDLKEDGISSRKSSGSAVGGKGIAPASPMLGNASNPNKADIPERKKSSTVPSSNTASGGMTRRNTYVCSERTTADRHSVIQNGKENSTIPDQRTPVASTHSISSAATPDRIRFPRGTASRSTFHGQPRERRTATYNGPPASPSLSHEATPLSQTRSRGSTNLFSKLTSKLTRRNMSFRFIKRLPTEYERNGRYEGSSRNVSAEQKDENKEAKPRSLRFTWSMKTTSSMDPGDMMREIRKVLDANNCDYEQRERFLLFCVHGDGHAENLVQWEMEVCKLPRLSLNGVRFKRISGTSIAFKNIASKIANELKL
CK1, sequence (P48730 whole entry): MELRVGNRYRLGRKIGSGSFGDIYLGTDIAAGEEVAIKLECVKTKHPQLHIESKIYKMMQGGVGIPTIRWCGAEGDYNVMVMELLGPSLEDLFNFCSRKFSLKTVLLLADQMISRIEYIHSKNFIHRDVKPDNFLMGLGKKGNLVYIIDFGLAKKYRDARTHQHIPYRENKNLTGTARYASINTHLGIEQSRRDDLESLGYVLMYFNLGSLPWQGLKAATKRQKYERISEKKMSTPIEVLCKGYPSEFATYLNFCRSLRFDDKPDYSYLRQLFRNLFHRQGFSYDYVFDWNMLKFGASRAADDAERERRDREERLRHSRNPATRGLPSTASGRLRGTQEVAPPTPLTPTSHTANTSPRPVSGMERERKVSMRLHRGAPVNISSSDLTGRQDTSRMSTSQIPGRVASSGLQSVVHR
RSK2, sequence (P51812 whole entry): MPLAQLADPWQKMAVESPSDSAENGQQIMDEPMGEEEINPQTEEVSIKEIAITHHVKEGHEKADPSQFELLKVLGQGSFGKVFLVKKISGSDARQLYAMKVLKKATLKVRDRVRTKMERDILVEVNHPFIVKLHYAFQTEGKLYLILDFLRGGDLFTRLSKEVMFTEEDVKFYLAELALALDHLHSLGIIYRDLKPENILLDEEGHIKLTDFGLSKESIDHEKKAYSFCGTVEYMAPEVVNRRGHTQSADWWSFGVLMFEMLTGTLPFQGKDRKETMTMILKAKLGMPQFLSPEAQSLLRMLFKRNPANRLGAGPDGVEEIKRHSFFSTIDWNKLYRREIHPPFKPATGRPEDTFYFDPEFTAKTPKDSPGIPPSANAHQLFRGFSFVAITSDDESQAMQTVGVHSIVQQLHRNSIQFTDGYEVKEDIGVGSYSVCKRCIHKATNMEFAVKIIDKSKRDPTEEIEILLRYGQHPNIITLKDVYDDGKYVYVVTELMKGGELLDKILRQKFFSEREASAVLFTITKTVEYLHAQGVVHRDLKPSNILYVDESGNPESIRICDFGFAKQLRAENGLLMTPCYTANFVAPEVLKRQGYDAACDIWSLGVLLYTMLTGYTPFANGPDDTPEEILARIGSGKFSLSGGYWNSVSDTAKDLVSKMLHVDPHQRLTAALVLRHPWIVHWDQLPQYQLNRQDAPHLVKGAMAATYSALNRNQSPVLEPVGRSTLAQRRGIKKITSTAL

On to `COc1cc(C2=C(c3c[nH]c4ccccc34)C(=O)NC2=O)cc(OC)c1OC` [Compound 1, 3-(1H-Indol-3-yl)-4-(3,4,5-trimethoxyphenyl)-1H-pyrrole-2,5-dione], for which the remaining activity at 0.1 µM on MARK3 stood at 90%; on PIM2, 115%; on SRPK1, 85%; on DYRK3 it was 85%; on CK1, 86%; on RSK2, 91%.

Take `COc1cc2c3c(c4c5ccccc5[nH]c4c2c(OC)c1OC)C(=O)NC3=O` [Compound 3, 5,6,7-Trimethoxybenzo[a]pyrrolo[3,4-c]carbazole-1,3(2H,8H)-dione]: the melting point turned out to be 275 °C. Further, the remaining activity at 0.1 µM on MARK3 was 73%. For the same compound, on PIM2, the remaining activity at 0.1 µM came to 115%. Further, at IR-HIS, the remaining activity at 0.1 µM amounted to 88%. The remaining activity at 0.1 µM on SRPK1 is 83%. Also, the remaining activity at 0.1 µM on DYRK3 was 46%. In addition, the remaining activity at 0.1 µM on CK1 amounted to 78%. Further, on RSK2, the remaining activity at 0.1 µM came out at 62%. In series [1], the “UV stability under irradiation at 365 nm” value was “quite stable”. In addition, the cellular uptake entry in the series with PC-3 cells is recorded as “taken up into the cells, but not within the cell nuclei”.
